In patent publication US10072035B2, “Phenanthroline phosphonic acid derivative and preparation method therefor and application thereof” (Guangzhou Beryl Therapeutics, Inc, priority 2014, dated 2018):

Legend:
[1] = biological target: T1, human P4H enzyme (Homo sapiens, UniProt P13674); test: P4H enzymatic activity, coupled succinyl CoA synthase / MLG phosphate assay; assay type: biochemical; settings: 50 nM P4H, 100 uM 2-oxoglutarate, 45 min at 25° C., n=2, FIG. 1
T1 construct: made in house; host or cells: E. coli Origami2(DE3)
T1 sequence (P13674 18-534): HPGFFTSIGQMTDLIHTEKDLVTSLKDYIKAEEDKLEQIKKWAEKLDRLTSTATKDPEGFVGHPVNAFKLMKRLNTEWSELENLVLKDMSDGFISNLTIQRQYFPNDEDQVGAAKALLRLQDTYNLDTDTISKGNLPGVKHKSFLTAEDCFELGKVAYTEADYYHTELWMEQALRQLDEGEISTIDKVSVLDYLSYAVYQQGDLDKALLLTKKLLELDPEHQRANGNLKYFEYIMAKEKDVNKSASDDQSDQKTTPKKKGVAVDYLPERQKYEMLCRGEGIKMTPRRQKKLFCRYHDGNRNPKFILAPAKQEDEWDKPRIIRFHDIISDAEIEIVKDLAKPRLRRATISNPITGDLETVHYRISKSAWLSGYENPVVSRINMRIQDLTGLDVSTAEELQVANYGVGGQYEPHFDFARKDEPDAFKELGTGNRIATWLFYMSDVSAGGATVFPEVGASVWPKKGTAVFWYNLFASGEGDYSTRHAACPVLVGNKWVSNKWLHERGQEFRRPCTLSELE
T1 sequence (P07237 18-508 partner): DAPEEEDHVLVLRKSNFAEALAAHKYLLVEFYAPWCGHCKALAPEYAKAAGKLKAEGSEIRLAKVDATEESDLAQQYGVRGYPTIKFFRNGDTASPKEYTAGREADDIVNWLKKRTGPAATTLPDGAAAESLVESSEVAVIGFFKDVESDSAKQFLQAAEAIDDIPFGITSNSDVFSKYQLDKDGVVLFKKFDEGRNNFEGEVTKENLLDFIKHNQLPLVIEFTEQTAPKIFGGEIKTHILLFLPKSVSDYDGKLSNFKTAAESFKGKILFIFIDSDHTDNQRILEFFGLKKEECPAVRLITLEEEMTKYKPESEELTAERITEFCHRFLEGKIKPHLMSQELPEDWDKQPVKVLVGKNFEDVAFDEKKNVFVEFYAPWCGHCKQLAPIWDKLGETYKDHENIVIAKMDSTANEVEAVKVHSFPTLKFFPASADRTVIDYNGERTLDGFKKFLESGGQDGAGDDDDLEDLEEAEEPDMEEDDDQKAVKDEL
Source text: Human recombinant P4H was expressed in E. coli. Briefly, DNA encoding the signal sequence of P4H was cloned into pET28_N-His_TEV, the resulting plasmid pET28_N-His_TEV_P4HA1/PDI was transferred to E. coli Origami2(DE3) to co-expressed. The enzyme obtained was purified with MonoQ ion-exchange column, TEV digested and confirmed by MS, passed through Histrap HP column, finally purified with Hiload16/60 superdex 200 column.
The measurement of the enzymatic activity of purified P4H zymoprotein and the assay of the influence of the compound to the enzymatic activity were performed at the following coupling enzymatic reaction system: 100 mM Tris (pH7.0), 0.1 mM (NH4)2Fe(SO4)2, 0.1 mM ascorbic acid, 0.2 mM CoA, 0.2 mM ATP, 0.5 uM succinyl CoA synthase, 100 uM 2-oxoglutarate, 100 uM (Pro-Pro-Gly)10peptide, 50 nM P4H enzyme, 50 ul total. After 45 min reaction at 25° C., 10 ul MLG R1 was added and reacted for 10 min, 10 ul MLG R2 was added and reacted for 20 min. P4H catalyst 2-oxoglutaric acid and polypeptide with coenzyme and suitable enzyme reaction environment to give product succinic acid. The product succinic acid then produced succinyl CoA and phosphoric acid with the action of succinyl CoA synthase. The level of generated phosphoric acid could be measured by MLG, which reflects the level of P4H. The generated green product (MG+)(H2PMo12O40) was measured at OD 630 nm. […]

[2] = Concentration of compound 16c and 9c in liver after PO dosing of compound 27; assay type: in vivo, Wistar rats; settings: rat; for concentration at 0.25 h / concentration at 0.75 h / concentration at 8 h / concentration at 24 h: both sexes, Wistar, liver; for concentration at 0.25 h: 0.25 h after oral administration of compound 27 (39 mg/kg); for concentration at 0.75 h: 0.75 h after oral administration of compound 27 (39 mg/kg); for concentration at 8 h: 8 h after oral administration of compound 27 (39 mg/kg); for concentration at 24 h: 24 h after oral administration of compound 27 (39 mg/kg); for Conversion of prodrug in vivo: after PO dosing of compound 27
Experimental: 16 Wistar rats (200±20 g) were divided into 4 groups randomly, female and male each half in each group, ate and drank freely before the experiment. After PO dosing of compound 27 (39 mg·kg^−1), rats were sacrificed at each time point 15 min, 45 min, 8 h, 24 h. Liver samples were collected, washed off blood and contents with saline, cut into small pieces, and stirred evenly. 1 g was weighed. 1 mL Methanol/water was added. After homogenated, additional 1 mL methanol/water was added. The mixture was sonicated for 15 seconds, centrifuged (4500 rpm) for 10 minutes. The upper clear solution was tested using LC-MS/MS method to give the concentration of compound 16c and 9c in liver at different time points after administration (table 2).

[3] = In-vivo pharmacokinetics in plasma of rats; set-up: species or system Wistar rats
Experimental: Wistar rats (200±20 g) were divided into 2 groups, 6 each, half female and half male in each group, ate and drank freely. The first group was given compound 16c 3 mg·kg^−1 caudal-intravenously. The second group was orally administered disodium salt of compound 27 (39 mg·kg^−1). Blood (0.3 mL) was collected from retroorbital vein at time point 0 h, 0.08 h, 0.17 h, 0.33 h, 0.5 h, 0.75 h, 1 h, 1.5 h, 2 h, 3 h, 5 h, 7 h, placed into cold heparinized Eppendorf tubes. The samples were centrifuged at 4° C. (15000 rpm) for 5 min. Transfer 100 μL plasma sample to −80° C. freezer for test.
Quantitative LC-MS/MS analysis methods of compound 9c and prodrug 16c in plasma were set up, using diazepam and mildronate as internal standard, respectively. (Prodrug 27 was not detected under experimental condition from plasma) the plasma sample was tested and analyzed. (result see in Table 1 and FIG. 2)
Oral Bioavailability was calculated according to compound 16c in plasma. Area under concentration-time curve (AUC) of PO dosing was divided by AUC of iv dosing of same amount of drugs, expressed as absorption percentage: Bioavailability (F)=AUCpo·Miv/AUCiv·Mpo×100%. Wherein, Miv means the molar concentration of drugs by iv dosing, and Mpo means the molar concentration of drugs by PO dosing. The AUC0-t of compound 16c in plasma

[4] = system: BDL rats having liver fibrosis; test: Bile Duct Ligation induced liver fibrosis model in rats; assay type: in vivo, Wistar rats
Source text: This experiment used Bile Duct Ligation to induce liver fibrosis model in rats. Treatment of BDL rats with PO dosing prodrug 27 was studied.
Briefly, Wistar rats (200±20 g) were divided into 3 groups, half female and half male in each group:
SHAM group: 6 rats were anaesthetized, the abdominal skin was shaved and sterilized regularly, the common bile duct was exposed by an upper abdominal midline incision with sterile operation. Muscle and skins were sutured separately.
liver fibrosis MODEL group: 12 rats were anaesthetized, the abdominal skin was shaved and sterilized regularly, the common bile duct was exposed and ligated by an upper abdominal midline incision with sterile operation. Muscle and skins were sutured separately.
Dosing group: 12 rats were anaesthetized, the abdominal skin was shaved and sterilized regularly, the common bile duct was exposed and ligated by an upper abdominal midline incision with sterile operation. Muscle and skins were sutured separately. After operation, disodium salt of compound 27 (30 mg/kg) was dissolved in water and dosed orally to the rats once per day test indexes:
After 2 weeks, measure the ALT and AST of serium and liver homogenate
After 2 weeks, rats were sacrificed, and liver performed HE staining and Masson staining.

[5] = system: myocardial infarction; settings: in vivo; cited from earlier work
[6] = cited from earlier work
[7] = system: hepatic stellate cells; settings: cited from earlier work
[8] = both sexes, rat, compound 16c in plasma after compound 16c IV 3 mg/kg, Wistar rats

O=P(O)(O)c1cnc2c(ccc3c(O)ccnc32)c1 [Compound 9c, 7-hydroxy-1,10-phenanthrolin-3-yl phosphonic acid]
IC50 [1]: 8.1 µM | concentration at 0.25 h [2]: 16.1 ng/g | concentration at 0.75 h [2]: 64.2 ng/g | concentration at 8 h [2]: 44.7 ng/g | concentration at 24 h [2]: 3.55 ng/g

O=P1(c2cnc3c(ccc4c(O)ccnc43)c2)OCC[C@@H](c2cccc(Cl)c2)O1 (stereo partly drawn) [Compound 16c, (4S)-4-(3-chlorophenyl)-2-(7-hydroxy-1,10-phenanthrolin-3-yl)-1,3,2-dioxaphosphinan-2-one]
AUC0-t of compound 16c in plasma ([3]; after compound 16c 3 mg/kg intravenously): 2060 ng·h/mL | AUC(0-inf) [3, 8]: 2140 ng·h/mL | AUC(0-t) [3, 8]: 2060 ng·h/mL | Cmax ([3]; both sexes, rat, compound 16c in plasma after compound 16c IV 3 mg/kg, Wistar rats, read-out: Cmax (peak concentration in plasma)): 1620 ng/mL | half-life ([3]; both sexes, rat, compound 16c in plasma after compound 16c IV 3 mg/kg, Wistar rats, read-out: t1/2 (half life of drug in plasma) (converted)): 1.5 h | concentration at 0.25 h [2]: 522 ng/g | concentration at 0.75 h [2]: 662 ng/g | concentration at 8 h [2]: 584 ng/g | concentration at 24 h [2]: 50.9 ng/g | Conversion of prodrug in vivo [2]: converted to compound 9c in liver

O=c1ccn(COP(=O)(O)O)c2c1ccc1cc(P3(=O)OCC[C@@H](c4cccc(Cl)c4)O3)cnc12 (stereo partly drawn) [Compound 27, (3-(4S-4-(3-chlorophenyl)-1,3,2-dioxaphosphinan-2-one-2-yl)-1,10-phenanthrolin-7-one)-10(7H)-methyl phosphoric acid]
Detection of prodrug 27 in plasma ([3]; LC-MS/MS, after PO dosing 39 mg/kg): not detected | ALT in serum ([4]; BDL rats, 30 mg/kg PO once per day, 2 weeks, MODEL 144.4 ± 15.94, SHAM 67.1 ± 5.45): 74.4 ± 17.82 IU/L | AST in serum ([4]; BDL rats, 30 mg/kg PO once per day, 2 weeks, MODEL 207.2 ± 30.96, SHAM 67.7 ± 4.67): 87.2 ± 12.51 IU/L | H&E staining of rat liver ([4]; BDL, PO 30 mpk, 2 weeks, FIG. 5): varies the pathological changes of hepatic tissue | ALT and AST of the serium and liver homogenate versus model group ([4]; after 14 days of administration, P<0.01): decreased significantly | ALT in liver ([4]; liver homogenate, BDL rats, 30 mg/kg PO once per day, 2 weeks, MODEL 136.8 ± 16.48): 76.4 ± 11.35 IU/L | AST in liver ([4]; liver homogenate, BDL rats, 30 mg/kg PO once per day, 2 weeks, MODEL 198.75 ± 27.70): 91.42 ± 8.79 IU/L | Conversion of prodrug in vivo [2]: converted to compound 16c in rat

O=C(O)c1c[nH]c2c(ccc3cccnc32)c1=O [FG-041, 1,4-dihydrophenanthrol-4-one-3-carboxylic acid]
myocardial infarction in animal experiment [5]: prevent myocardial infarction

COCCNC(=O)c1ccnc(C(=O)NCCOC)c1 [HOE077]
side effects in clinical trials [6]: severe side effects (cataract) | activation of hepatic stellate cells [7]: inhibits | expression of procollagen mRNA [7]: inhibits | hepatic stellate cells proliferation [7]: reduces | synthesis of total protein of cell [7]: no effect
